Measurements: patent publication US10214526B2, “Substituted pyrazolo[1,5-a]-pyridine-3-carboxamides and use thereof” (Bayer Pharma Aktiengesellschaft, priority 2015, dated 2019)
Structures can show the parent of a compound that is named as a salt.

test system: recombinant guanylate cyclase reporter cell line; assay: Effect on a recombinant guanylate cyclase reporter cell line; format: cell-based; settings: in some cases mean values from individual determinations
Protocol: B-2. Effect on a Recombinant Guanylate Cyclase Reporter Cell Line
The cellular activity of the compounds according to the invention is determined using a recombinant guanylate cyclase reporter cell line, as described in F. Wunder et al., Anal. Biochem. 339, 104-112 (2005).
Representative MEC values (MEC=minimum effective concentration) for the compounds of the invention are shown in the table below (in some cases as mean values from individual determinations): […]

Row | SMILES | MEC (minimum effective concentration) [µM]
1 | Cc1cc(OCc2c(F)cccc2F)n2nc(C)c(C(=O)NC(C)(CO)c3nnn(C(F)F)n3)c2c1 (racemic) [Example 2, rac-7-[(2,6-Difluorobenzyl)oxy]-N-{2-[2-(difluoromethyl)-2H-tetrazol-5-yl]-1-hydroxypropan-2-yl}-2,5-dimethylpyrazolo[1,5-a]pyridine-3-carboxamide] | 0.10
2 | [2H]C([2H])([2H])CC(C)(N)CNC(=O)c1c(C)nn2c(OCc3c(F)cccc3F)cc(C)cc12 (single isomer, unassigned; enantiomer a) [Example 3, ent-N-[2-Amino-2-methyl(4,4,4,4-^2H3)butyl]-7-[(2,6-difluorobenzyl)oxy]-2,5-dimethylpyrazolo[1,5-a]pyridine-3-carboxamide (Enantiomer A)] | 0.30
3 | Cc1cc(OCc2c(F)cccc2F)n2nc(C)c(C(=O)NCC(C)(N)CC[Si](C)(C)C)c2c1 (single isomer, unassigned; enantiomer a) [Example 4, ent-N-[2-Amino-2-methyl-4-(trimethylsilyl)butyl]-7-[(2,6-difluorobenzyl)oxy]-2,5-dimethylpyrazolo[1,5-a]pyridine-3-carboxamide (Enantiomer A)] | 0.53
4 | Cc1cc(OCc2c(F)cccc2F)n2nc(C)c(C(=O)NCC(C)(N)CC[Si](C)(C)C)c2c1 (single isomer, unassigned; enantiomer b) [Example 5, ent-N-[2-Amino-2-methyl-4-(trimethylsilyl)butyl]-7-[(2,6-difluorobenzyl)oxy]-2,5-dimethylpyrazolo[1,5-a]pyridine-3-carboxamide (Enantiomer B)] | 0.30
5 | Cc1cc(OCc2c(F)cccc2F)n2nc(C)c(C(=O)N[C@@](C)(CO)c3nnc(C)s3)c2c1 [Example 1, 7-[(2,6-Difluorobenzyl)oxy]-N-[(2S)-1-hydroxy-2-(5-methyl-1,3,4-thiadiazol-2-yl)propan-2-yl]-2,5-dimethylpyrazolo[1,5-a]pyridine-3-carboxamide trifluoroacetate] | 0.20
